Legend:
Test in all cases: relative viability (nuclei count vs DMSO), 5 days (fraction); higher = more cells survive
Darinaparsin + OSI-027 = compound: C[As](C)SC[C@H](NC(=O)CC[C@H](N)C(=O)O)C(=O)NCC(=O)O [Darinaparsin] + COc1cccc2cc(-c3nc([C@H]4CC[C@H](C(=O)O)CC4)n4ncnc(N)c34)[nH]c12 [OSI-027] (partner 0.5 µM)
In short: (§1)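 Five library-drug doses in √10 steps were combined with a fixed anchor-drug dose, or a single drug was given alone, by pin tool to lung cancer cell lines in 1536-well plates the day after seeding. Nuclei were stained and counted after 5 days. Relative viability is the nuclei count in treated wells over that in vehicle wells, taken as the median of duplicate plates.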

QS11 + Lapatinib = compound: C1CC2=C(C1)C=C(C=C2)OC3=NC(=C4C(=N3)N(C=N4)CC5=CC=C(C=C5)C6=CC=CC=C6)N[C@@H](CC7=CC=CC=C7)CO [QS11] + CS(=O)(=O)CCNCc1ccc(-c2ccc3ncnc(Nc4ccc(OCc5cccc(F)c5)c(Cl)c4)c3c2)o1 [Lapatinib] (partner 2 µM)
In short: as §1

QS11 + Luminespib = compound: C1CC2=C(C1)C=C(C=C2)OC3=NC(=C4C(=N3)N(C=N4)CC5=CC=C(C=C5)C6=CC=CC=C6)N[C@@H](CC7=CC=CC=C7)CO [QS11] + CCNC(=O)c1noc(-c2cc(C(C)C)c(O)cc2O)c1-c1ccc(CN2CCOCC2)cc1 [Luminespib] (partner 0.01 µM)
In short: as §1

AZ628 + Navitoclax = compound: CC1=C(C=C(C=C1)NC(=O)C2=CC(=CC=C2)C(C)(C)C#N)NC3=CC4=C(C=C3)N=CN(C4=O)C [AZ628] + CC1(C)CCC(c2ccc(Cl)cc2)=C(CN2CCN(c3ccc(C(=O)NS(=O)(=O)c4ccc(N[C@H](CCN5CCOCC5)CSc5ccccc5)c(S(=O)(=O)C(F)(F)F)c4)cc3)CC2)C1 [Navitoclax] (partner 0.5 µM)
In short: as §1

Row | Cell Line | relative viability (Darinaparsin + OSI-027; first compound 0.08 µM) | relative viability (Darinaparsin + OSI-027; first compound 0.8 µM) | relative viability (Darinaparsin + OSI-027; first compound 2.53 µM) | relative viability (Darinaparsin + OSI-027; first compound 8 µM) | relative viability (QS11 + Lapatinib; first compound 0.08 µM) | relative viability (QS11 + Lapatinib; first compound 0.253 µM) | relative viability (QS11 + Lapatinib; first compound 0.8 µM) | relative viability (QS11 + Lapatinib; first compound 2.53 µM) | relative viability (QS11 + Lapatinib; first compound 8 µM) | relative viability (QS11 + Luminespib; first compound 0.253 µM) | relative viability (QS11 + Luminespib; first compound 0.8 µM) | relative viability (QS11 + Luminespib; first compound 2.53 µM) | relative viability (QS11 + Luminespib; first compound 8 µM) | relative viability (AZ628 + Navitoclax; first compound 0.08 µM) | relative viability (AZ628 + Navitoclax; first compound 0.253 µM) | relative viability (AZ628 + Navitoclax; first compound 0.8 µM) | relative viability (AZ628 + Navitoclax; first compound 2.53 µM) | relative viability (AZ628 + Navitoclax; first compound 8 µM) | relative viability (QS11 + Luminespib; first compound 0.08 µM)
1 | PC-14 | 1.09 | 0.697 | 0.704 | 1.26 | 0.277 | 0.315 | 0.257 | 0.249 | 0.329 | 0.14 | 0.183 | 0.135 | 0.148 | 1.03 | 0.997 | 1.1 | 1.17 | 0.977 | –
2 | EPLC-272H | – | 0.285 | 0.243 | 0.321 | 1.01 | 0.855 | 0.953 | 0.98 | 0.871 | 0.269 | 0.311 | 0.385 | 0.284 | 1.02 | 1.04 | 1.24 | 1.1 | 0.709 | –
3 | NCI-H2228 | 0.778 | 0.5 | 0.483 | 0.78 | 1.12 | 0.826 | 1.17 | 1.54 | 1.09 | 0.191 | 0.154 | 0.14 | 0.145 | 0.829 | 1.13 | 1.03 | 1.01 | 0.839 | 0.0998
4 | LC-2-ad | 0.877 | 0.762 | 0.67 | 0.759 | 0.91 | 1.09 | 0.627 | 1.04 | 0.921 | 0.981 | 0.857 | 0.956 | 1.17 | 0.406 | 0.348 | 0.589 | 0.54 | 0.347 | 0.851
5 | HOP-62 | 0.958 | 0.852 | 0.694 | 0.855 | 0.95 | 1.18 | 0.863 | 0.892 | 0.983 | 1.03 | 0.828 | 0.942 | 0.934 | 1.09 | 1.17 | 1.02 | 1.1 | 0.729 | 0.816
6 | UMC-11 | 0.543 | 0.529 | 0.414 | 0.592 | 0.873 | 0.984 | 0.874 | 1.16 | 1.33 | 1.13 | 0.995 | 1.27 | 1.12 | 0.311 | 0.378 | 0.334 | 0.313 | 0.418 | 1.01
7 | Calu-6 | – | – | – | – | 1.11 | 1.07 | 0.969 | 1.31 | 1.12 | – | – | – | – | 0.926 | 0.494 | 0.317 | 0.595 | 0.152 | –
8 | HCC-44 | 0.511 | 0.514 | 0.454 | 0.378 | 1.07 | 0.936 | 0.668 | 0.955 | 0.888 | 1.18 | 0.805 | 0.937 | 1.24 | 0.966 | 1 | 0.996 | 1.06 | 0.874 | 1.08
9 | NCI-H727 | 0.77 | 0.541 | 0.794 | 0.854 | 1 | 0.714 | 0.892 | 0.665 | 0.639 | 0.391 | 0.341 | 0.321 | 0.341 | 0.339 | 0.276 | 0.163 | 0.154 | 0.165 | 0.876
10 | A-427 | 0.424 | 0.445 | 0.466 | 0.582 | 0.881 | 1.08 | – | 1.12 | 1.07 | 0.885 | – | 1.02 | 1.05 | 0.875 | 0.826 | 0.726 | 0.671 | 0.31 | 0.918
11 | SK-MES-1 | 0.627 | 0.743 | 0.561 | 0.819 | 0.475 | 0.432 | 0.498 | 0.457 | 0.45 | 0.927 | 0.685 | 0.883 | 0.823 | 1.22 | 1.25 | 1.39 | 1.23 | 1.21 | 0.553
12 | NCI-H1623 | 0.429 | 0.496 | 0.471 | 0.393 | – | – | – | – | – | 0.705 | 0.486 | 0.479 | 0.503 | – | – | – | – | – | 0.529
13 | HCC-827 | 0.705 | 0.837 | 0.626 | 0.766 | 0.176 | 0.226 | 0.158 | 0.243 | 0.227 | 0.508 | 0.597 | 0.694 | 0.675 | 0.986 | 1 | 0.954 | 1.02 | 0.811 | 0.587
14 | EKVX | 0.723 | 0.604 | 0.752 | 0.833 | 0.189 | 0.167 | – | 0.216 | 0.201 | 0.732 | – | 0.848 | 1.03 | 0.982 | 0.925 | 1.11 | 0.966 | 0.589 | 0.907
15 | SW 900 | 0.851 | 0.547 | 0.72 | 0.756 | – | – | – | – | – | 0.197 | 0.166 | 0.17 | 0.178 | – | – | – | – | – | 0.18
16 | NCI-H661 | 0.722 | 0.677 | 0.658 | 0.69 | 0.474 | 0.45 | 0.632 | 0.354 | 0.463 | 0.96 | 0.806 | 1.08 | 0.839 | – | – | – | – | – | 0.988
17 | NCI-H1975 | 0.971 | 0.742 | 0.544 | 0.961 | 0.912 | 0.805 | 0.965 | 1.03 | 1.18 | 0.33 | 0.275 | 0.281 | 0.2 | 1.09 | 1.04 | 1.02 | 1.04 | 0.654 | 0.199
18 | NCI-H1944 | 0.413 | 0.372 | 0.399 | 0.437 | 0.857 | 0.704 | – | 0.89 | 0.598 | 0.864 | – | 0.557 | 0.543 | 1.14 | 1.04 | 1 | 0.949 | 0.921 | 0.702
